The nature of this data set: MALDI-TOF screening of Ni^2+ dependent hydrolysis in a combinatorial peptide library. Type of data set: physicochemical. The conditions noted are these: Ni^2+ 2 mM, pH 8.2, 10 mM Tris, score=24/tm. The essentials: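 The screen used 1 mM peptide mixtures in 10 mM Tris, pH 8.2, with 2 mM Ni2+ at two temperatures, 37 °C and 45 °C. Product appearance and substrate decline were monitored visually by MALDI-TOF over 8 h. Scores for X and Z were then summed by row and column to rank substitutions.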

Setting [1] is: CH3CO-Gly-Ala-Thr-X-His-Z-Lys-Phe-Leu-NH2 library, 37° C.
Where [2] appears, read: CH3CO-Gly-Ala-Thr-X-His-Z-Lys-Phe-Leu-NH2 library, 45° C.
[3] abbreviates: CH3CO-Gly-Ala-Ser-X-His-Z-Lys-Phe-Leu-NH2 library, 37° C.
[4] abbreviates: CH3CO-Gly-Ala-Ser-X-His-Z-Lys-Phe-Leu-NH2 library, 45° C.

Consider Ac-GATTHAKFL-NH2 [TTHA], for which the “hydrolysis score from MALDI-TOF screening” value (“hydrolysis score” below) is given as 0 (a score of 0 if no trace of the product of hydrolysis was seen after 8 hours of incubation) under setting [1] and 0 (a score of 0 if no trace of the product of hydrolysis was seen after 8 hours of incubation) under setting [2].
For the substance Ac-GATIHYKFL-NH2 [TIHY], the “hydrolysis score” value is, setting by setting: under setting [1], 0 (a score of 0 if no trace of the product of hydrolysis was seen after 8 hours of incubation); under setting [2], 0 (a score of 0 if no trace of the product of hydrolysis was seen after 8 hours of incubation).
As for Ac-GASLHQKFL-NH2 [SLHQ], the “hydrolysis score” value was 0 (a score of 0 if no trace of the product of hydrolysis was seen after 8 hours of incubation) under setting [3] and 0 (a score of 0 if no trace of the product of hydrolysis was seen after 8 hours of incubation) under setting [4].
Regarding Ac-GATVHEKFL-NH2 [TVHE], the “hydrolysis score” value under setting [1] is 0 (a score of 0 if no trace of the product of hydrolysis was seen after 8 hours of incubation) and the “hydrolysis score” value under setting [2] is 0 (a score of 0 if no trace of the product of hydrolysis was seen after 8 hours of incubation).
Turning to Ac-GATVHPKFL-NH2 [TVHP], the “hydrolysis score” value is recorded as 0 (a score of 0 if no trace of the product of hydrolysis was seen after 8 hours of incubation) under setting [1] and 0 (a score of 0 if no trace of the product of hydrolysis was seen after 8 hours of incubation) under setting [2].
As to Ac-GATLHKKFL-NH2 [TLHK], the “hydrolysis score” value is, setting by setting: under setting [1], 0 (a score of 0 if no trace of the product of hydrolysis was seen after 8 hours of incubation); under setting [2], 3 (a score of 3 for detection at 8 hours).
For Ac-GASRHHKFL-NH2 [SRHH], the “hydrolysis score” value reads like this: under setting [3], 4 (a score of 4 for detection at 6 hours); under setting [4], 4 (a score of 4 for detection at 6 hours).
For the substance Ac-GASFHPKFL-NH2 [SFHP], the “hydrolysis score” value by setting is: under setting [3], 0 (a score of 0 if no trace of the product of hydrolysis was seen after 8 hours of incubation); under setting [4], 0 (a score of 0 if no trace of the product of hydrolysis was seen after 8 hours of incubation).
Regarding Ac-GASGHDKFL-NH2 [SGHD], the “hydrolysis score” value is 0 (a score of 0 if no trace of the product of hydrolysis was seen after 8 hours of incubation) under setting [3] and 0 (a score of 0 if no trace of the product of hydrolysis was seen after 8 hours of incubation) under setting [4].
Take Ac-GATIHTKFL-NH2 [TIHT]: the “hydrolysis score” value by setting is: under setting [1], 0 (a score of 0 if no trace of the product of hydrolysis was seen after 8 hours of incubation); under setting [2], 0 (a score of 0 if no trace of the product of hydrolysis was seen after 8 hours of incubation).
For Ac-GATYHEKFL-NH2 [TYHE], the “hydrolysis score” value was 0 (a score of 0 if no trace of the product of hydrolysis was seen after 8 hours of incubation) under setting [1] and 0 (a score of 0 if no trace of the product of hydrolysis was seen after 8 hours of incubation) under setting [2].
Consider Ac-GASNHNKFL-NH2 [SNHN], for which the “hydrolysis score” value by setting is: under setting [3], 0 (a score of 0 if no trace of the product of hydrolysis was seen after 8 hours of incubation); under setting [4], 0 (a score of 0 if no trace of the product of hydrolysis was seen after 8 hours of incubation).
For the substance Ac-GATRHNKFL-NH2 [TRHN], the “hydrolysis score” value under setting [1] is given as 0 (a score of 0 if no trace of the product of hydrolysis was seen after 8 hours of incubation) and the “hydrolysis score” value under setting [2] is 0 (a score of 0 if no trace of the product of hydrolysis was seen after 8 hours of incubation).
On to Ac-GASFHGKFL-NH2 [SFHG], for which the “hydrolysis score” value under setting [3] is 0 (a score of 0 if no trace of the product of hydrolysis was seen after 8 hours of incubation) and the “hydrolysis score” value under setting [4] is recorded as 0 (a score of 0 if no trace of the product of hydrolysis was seen after 8 hours of incubation).
Regarding Ac-GATWHFKFL-NH2 [TWHF], the “hydrolysis score” value under setting [1] is given as 0 (a score of 0 if no trace of the product of hydrolysis was seen after 8 hours of incubation) and the “hydrolysis score” value under setting [2] was 0 (a score of 0 if no trace of the product of hydrolysis was seen after 8 hours of incubation).
Regarding Ac-GASFHRKFL-NH2 [SFHR], the “hydrolysis score” value reads like this: under setting [3], 4 (a score of 4 for detection at 6 hours); under setting [4], 6 (a score of 6 for detection at 4 hours).
As to Ac-GATNHTKFL-NH2 [TNHT], the “hydrolysis score” value is on record as 0 (a score of 0 if no trace of the product of hydrolysis was seen after 8 hours of incubation) under setting [1] and 0 (a score of 0 if no trace of the product of hydrolysis was seen after 8 hours of incubation) under setting [2].
Ac-GASSHQKFL-NH2 [SSHQ]: the “hydrolysis score” value is reported as 0 (a score of 0 if no trace of the product of hydrolysis was seen after 8 hours of incubation) under setting [3] and 0 (a score of 0 if no trace of the product of hydrolysis was seen after 8 hours of incubation) under setting [4].
In the case of Ac-GASRHEKFL-NH2 [SRHE], the “hydrolysis score” value is recorded as 0 (a score of 0 if no trace of the product of hydrolysis was seen after 8 hours of incubation) under setting [3] and 3 (a score of 3 for detection at 8 hours) under setting [4].
For the substance Ac-GATHHDKFL-NH2 [THHD], the “hydrolysis score” value was 0 (a score of 0 if no trace of the product of hydrolysis was seen after 8 hours of incubation) under setting [1] and 0 (a score of 0 if no trace of the product of hydrolysis was seen after 8 hours of incubation) under setting [2].
Turning to Ac-GATFHEKFL-NH2 [TFHE], the “hydrolysis score” value was 0 (a score of 0 if no trace of the product of hydrolysis was seen after 8 hours of incubation) under setting [1] and 0 (a score of 0 if no trace of the product of hydrolysis was seen after 8 hours of incubation) under setting [2].
On to Ac-GATFHVKFL-NH2 [TFHV], for which the “hydrolysis score” value is 0 (a score of 0 if no trace of the product of hydrolysis was seen after 8 hours of incubation) under setting [1] and 0 (a score of 0 if no trace of the product of hydrolysis was seen after 8 hours of incubation) under setting [2].
On to Ac-GATIHFKFL-NH2 [TIHF], for which the “hydrolysis score” value is 0 (a score of 0 if no trace of the product of hydrolysis was seen after 8 hours of incubation) under setting [1] and 0 (a score of 0 if no trace of the product of hydrolysis was seen after 8 hours of incubation) under setting [2].
As to Ac-GASRHKKFL-NH2 [SRHK], the “hydrolysis score” value reads like this: under setting [3], 6 (a score of 6 for detection at 4 hours); under setting [4], 12 (a score of 12, if it was seen to be partially hydrolysed at 2 hours).
With Ac-GATIHRKFL-NH2 [TIHR], the “hydrolysis score” value is 0 (a score of 0 if no trace of the product of hydrolysis was seen after 8 hours of incubation) under setting [1] and 3 (a score of 3 for detection at 8 hours) under setting [2].
Ac-GASNHMKFL-NH2 [SNHM]: the “hydrolysis score” value was 0 (a score of 0 if no trace of the product of hydrolysis was seen after 8 hours of incubation) under setting [3] and 0 (a score of 0 if no trace of the product of hydrolysis was seen after 8 hours of incubation) under setting [4].
Ac-GATAHRKFL-NH2 [TAHR]: the “hydrolysis score” value is on record as 0 (a score of 0 if no trace of the product of hydrolysis was seen after 8 hours of incubation) under setting [1] and 0 (a score of 0 if no trace of the product of hydrolysis was seen after 8 hours of incubation) under setting [2].
Regarding Ac-GATVHSKFL-NH2 [TVHS], the “hydrolysis score” value reads like this: under setting [1], 0 (a score of 0 if no trace of the product of hydrolysis was seen after 8 hours of incubation); under setting [2], 0 (a score of 0 if no trace of the product of hydrolysis was seen after 8 hours of incubation).
As for Ac-GASQHHKFL-NH2 [SQHH], the “hydrolysis score” value is recorded as 0 (a score of 0 if no trace of the product of hydrolysis was seen after 8 hours of incubation) under setting [3] and 0 (a score of 0 if no trace of the product of hydrolysis was seen after 8 hours of incubation) under setting [4].
Consider Ac-GASLHSKFL-NH2 [SLHS], for which the “hydrolysis score” value is 0 (a score of 0 if no trace of the product of hydrolysis was seen after 8 hours of incubation) under setting [3] and 0 (a score of 0 if no trace of the product of hydrolysis was seen after 8 hours of incubation) under setting [4].
Ac-GASMHNKFL-NH2 [SMHN]: the “hydrolysis score” value reads like this: under setting [3], 0 (a score of 0 if no trace of the product of hydrolysis was seen after 8 hours of incubation); under setting [4], 0 (a score of 0 if no trace of the product of hydrolysis was seen after 8 hours of incubation).
For Ac-GATNHGKFL-NH2 [TNHG], the “hydrolysis score” value is on record as 0 (a score of 0 if no trace of the product of hydrolysis was seen after 8 hours of incubation) under setting [1] and 0 (a score of 0 if no trace of the product of hydrolysis was seen after 8 hours of incubation) under setting [2].
As to Ac-GATNHQKFL-NH2 [TNHQ], the “hydrolysis score” value reads like this: under setting [1], 0 (a score of 0 if no trace of the product of hydrolysis was seen after 8 hours of incubation); under setting [2], 0 (a score of 0 if no trace of the product of hydrolysis was seen after 8 hours of incubation).

Source of the values: patent publication US8969516B2, “Method of hydrolysis of peptide bond” (priority 2006, dated 2015).
